Test results as given in ChEMBL document CHEMBL1201862, “PubChem BioAssay data set” (2004).
Activity calls are given as the source filed them.

How the values were obtained:
[1] = target: T1, Polyadenylate-binding protein 1 (Homo sapiens, UniProt P11940); assay: MLLE binding blockers, Cy5 peptide tracer – biochemical, fluorescence polarization, Cy5-PAM2 peptide, secondary, miRNA deadenylation inhibitor project, dose response (AID 602260); type: functional; details: read-out: IC50_Mean
[2] = target: T1, Polyadenylate-binding protein 1; assay: MLLE domain peptide-binding blockers, IC50 – biochemical, fluorescence polarization, FITC-PAM2 peptide, dose response (AID 602259); type: functional; details: read-out: IC50_Mean
[3] = target: T2, Corticotropin-releasing factor receptor 2/Corticotropin-releasing factor-binding protein (Homo sapiens, UniProt P24387+Q13324); assay: activators of CRF receptor 2 with binding protein – uHTS hits, confirmation (AID 602473); type: functional; details: read-out: EC50_Mean
T2 sequence (Q13324 whole entry): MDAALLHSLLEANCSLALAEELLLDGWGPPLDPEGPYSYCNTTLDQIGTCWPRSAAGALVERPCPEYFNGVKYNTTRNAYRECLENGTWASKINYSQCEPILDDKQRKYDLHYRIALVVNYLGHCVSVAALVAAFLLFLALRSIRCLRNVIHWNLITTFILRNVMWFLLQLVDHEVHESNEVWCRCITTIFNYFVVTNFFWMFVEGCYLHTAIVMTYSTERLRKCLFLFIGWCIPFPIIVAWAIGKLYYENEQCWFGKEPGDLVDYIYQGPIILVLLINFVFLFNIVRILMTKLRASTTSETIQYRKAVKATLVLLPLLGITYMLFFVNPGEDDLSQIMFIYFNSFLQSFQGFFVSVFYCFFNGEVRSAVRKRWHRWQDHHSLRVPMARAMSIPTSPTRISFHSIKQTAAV
T2 sequence (P24387 whole entry): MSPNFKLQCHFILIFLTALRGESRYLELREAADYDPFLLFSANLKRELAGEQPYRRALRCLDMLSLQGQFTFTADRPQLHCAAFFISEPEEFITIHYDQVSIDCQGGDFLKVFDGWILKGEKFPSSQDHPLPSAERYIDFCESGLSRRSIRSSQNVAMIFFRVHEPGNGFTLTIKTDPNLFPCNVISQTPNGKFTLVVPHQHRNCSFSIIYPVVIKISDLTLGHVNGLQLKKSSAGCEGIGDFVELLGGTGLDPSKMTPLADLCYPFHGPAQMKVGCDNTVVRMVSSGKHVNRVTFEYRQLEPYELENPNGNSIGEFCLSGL

[4] = target: T2, Corticotropin-releasing factor receptor 2/Corticotropin-releasing factor-binding protein; assay: Dose Response confirmation of uHTS hits for small molecule antagonists of the CRF-binding protein and CRF-R2 receptor complex.; type: functional; details: read-out: IC50_Mean
[5] = intracellular Trypanosoma cruzi inhibitors in host cells – cell-based, plate reader, cherry-pick samples, set 3, dose response (AID 651818); type: functional;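 also: compounds incubated with infected cells for about four days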
[6] = target: T3, Calpain-2 catalytic subunit (Sus scrofa, UniProt P43367); assay: m-calpain protease blockers, concentration series – biochemical, fluorogenic peptide substrate, dose response (AID 1420); type: functional
T3 sequence (P43367 whole entry): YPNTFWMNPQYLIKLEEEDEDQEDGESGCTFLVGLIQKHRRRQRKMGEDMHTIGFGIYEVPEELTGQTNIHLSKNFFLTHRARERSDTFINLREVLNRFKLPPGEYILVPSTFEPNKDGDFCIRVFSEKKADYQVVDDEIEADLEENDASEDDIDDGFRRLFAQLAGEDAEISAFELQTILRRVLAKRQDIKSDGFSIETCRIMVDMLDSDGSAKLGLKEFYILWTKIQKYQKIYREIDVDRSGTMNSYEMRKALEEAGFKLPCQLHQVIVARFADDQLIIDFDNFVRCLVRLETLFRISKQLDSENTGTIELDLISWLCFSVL

[7] = target: T4, Heat shock factor protein 1 (Mus musculus, UniProt P38532); assay: enhancement of HSF1-driven luciferase signal – cell-based, NIH3T3, luminescence, dose retest, confirmation (AID 435004); type: functional;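 also: stress induced by proteasome inhibitor MG132 added 30 min after compound; luciferase reporter driven by HSF1 response element in NIH3T3 cells; actives raise luminescence as potentiators of the MG132 stress response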
T4 sequence (P38532 whole entry): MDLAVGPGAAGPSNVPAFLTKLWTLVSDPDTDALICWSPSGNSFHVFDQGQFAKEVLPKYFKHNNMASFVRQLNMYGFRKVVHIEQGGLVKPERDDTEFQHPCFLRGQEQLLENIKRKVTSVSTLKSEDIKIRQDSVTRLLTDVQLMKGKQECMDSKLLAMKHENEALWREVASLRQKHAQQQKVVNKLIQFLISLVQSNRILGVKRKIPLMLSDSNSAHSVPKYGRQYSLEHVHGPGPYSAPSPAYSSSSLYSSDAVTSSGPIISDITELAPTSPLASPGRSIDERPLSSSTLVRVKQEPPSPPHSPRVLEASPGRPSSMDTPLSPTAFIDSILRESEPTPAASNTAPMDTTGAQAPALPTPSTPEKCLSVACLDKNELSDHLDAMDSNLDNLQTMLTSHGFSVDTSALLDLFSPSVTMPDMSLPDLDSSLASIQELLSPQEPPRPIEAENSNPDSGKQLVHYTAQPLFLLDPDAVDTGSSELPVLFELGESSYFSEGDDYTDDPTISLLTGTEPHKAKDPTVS

[8] = microbe, parasite or virus in culture; type: functional; details: Mycobacterium tuberculosis
[9] = target: T4, Heat shock factor protein 1; assay: decrease of HSF1-responsive luciferase luminescence – cell-based, NIH3T3, dose retest, confirmation (AID 2382); type: functional;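 also: NIH3T3 fibroblasts with HSF1-driven luciferase reporter stressed by proteasome inhibitor MG132; luminescence from HSF1-driven luciferase expression after 8 hours of MG132 stress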
[10] = THP-1 cell cytotoxicity, dose response, cytotoxicity control for non-replicating M. tuberculosis project (AID 489025); type: functional
[11] = Luminescence Cell-Based Dose Response HTS to Identify Inhibitors of 5'UTR Stem-Loop Driven Prion Protein mRNA Translation in H4 Neuroglioblastoma Cells. [Related pubchem assays: 1827 (Project Summary), 1813 (Primary HTS)]; type: functional
[12] = alpha-synuclein stem-loop luciferase translation blockers – H4 neuroglioma cells, luminescence, confirmation (AID 1988); type: functional, cell-based
[13] = luciferase reporter signal suppression in cells – H4 neuroglioma cells, luminescence, dose response (AID 1990); type: functional, cell-based
[14] = NIH-3T3 fibroblast cytotoxicity, dose response, cytotoxicity control, cell-based, fluorescence, Alamar Blue, secondary assay (AID 2327); type: functional;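 also: NIH-3T3 mouse fibroblasts cultured with fluconazole at 8 µg/mL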
[15] = fluconazole-exposed Candida albicans growth modulators – fluorescence, retest, confirmation (AID 2467); type: functional, cell-based
[16] = tested on: BJ; assay: BJ-TERT-LT-ST fibroblast viability loss – cell-based, RAS-independent, luminescence, dose response (AID 1935); type: functional; details: Homo sapiens;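 also: BJ fibroblasts immortalized with TERT plus LT and ST oncogenes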
[17] = tested on: BJ; assay: cells; type: functional, cell-based; details: Homo sapiens
[18] = tested on: BJ; assay: BJ-TERT fibroblast viability loss – cell-based, RAS-independent, luminescence, dose response (AID 1933); type: functional; details: Homo sapiens
[19] = DRD fibroblast viability loss – cell-based, non-viral oncogenic, luminescence, dose response (AID 1934); type: functional; details: Homo sapiens
[20] = target: Genome polyprotein (dengue virus type 2, UniProt P29990); assay: flavivirus cap methylation enzyme inhibition – biochemical, confirmation dose response, primary screen (AID 588689); type: functional
Sequence of Genome polyprotein (P29990 2492-3391 limits assumed): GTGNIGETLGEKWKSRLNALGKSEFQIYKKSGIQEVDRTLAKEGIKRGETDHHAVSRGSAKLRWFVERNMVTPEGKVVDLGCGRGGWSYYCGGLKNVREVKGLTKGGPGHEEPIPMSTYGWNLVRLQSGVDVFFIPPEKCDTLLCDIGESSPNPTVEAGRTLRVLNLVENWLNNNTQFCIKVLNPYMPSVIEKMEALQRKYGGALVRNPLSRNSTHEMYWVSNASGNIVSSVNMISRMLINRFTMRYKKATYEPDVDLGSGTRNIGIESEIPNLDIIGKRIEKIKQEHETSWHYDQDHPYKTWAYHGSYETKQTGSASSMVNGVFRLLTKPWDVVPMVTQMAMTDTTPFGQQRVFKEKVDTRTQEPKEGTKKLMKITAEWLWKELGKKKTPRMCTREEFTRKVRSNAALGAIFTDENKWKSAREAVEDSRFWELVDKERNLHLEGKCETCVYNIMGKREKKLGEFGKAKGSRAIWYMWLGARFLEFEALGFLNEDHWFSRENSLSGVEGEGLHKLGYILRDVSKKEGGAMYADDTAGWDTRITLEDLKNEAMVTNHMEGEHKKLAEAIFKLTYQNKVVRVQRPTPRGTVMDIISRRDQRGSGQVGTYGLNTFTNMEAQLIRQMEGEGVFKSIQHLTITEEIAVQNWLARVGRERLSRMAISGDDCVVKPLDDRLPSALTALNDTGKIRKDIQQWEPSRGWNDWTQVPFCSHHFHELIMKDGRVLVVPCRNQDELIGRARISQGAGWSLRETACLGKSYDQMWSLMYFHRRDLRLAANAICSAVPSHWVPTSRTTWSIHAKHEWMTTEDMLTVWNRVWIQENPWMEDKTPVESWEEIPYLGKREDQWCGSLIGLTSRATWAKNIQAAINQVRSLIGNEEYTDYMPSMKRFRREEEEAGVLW

T1 sequence (P11940 whole entry, the tested form may be a part): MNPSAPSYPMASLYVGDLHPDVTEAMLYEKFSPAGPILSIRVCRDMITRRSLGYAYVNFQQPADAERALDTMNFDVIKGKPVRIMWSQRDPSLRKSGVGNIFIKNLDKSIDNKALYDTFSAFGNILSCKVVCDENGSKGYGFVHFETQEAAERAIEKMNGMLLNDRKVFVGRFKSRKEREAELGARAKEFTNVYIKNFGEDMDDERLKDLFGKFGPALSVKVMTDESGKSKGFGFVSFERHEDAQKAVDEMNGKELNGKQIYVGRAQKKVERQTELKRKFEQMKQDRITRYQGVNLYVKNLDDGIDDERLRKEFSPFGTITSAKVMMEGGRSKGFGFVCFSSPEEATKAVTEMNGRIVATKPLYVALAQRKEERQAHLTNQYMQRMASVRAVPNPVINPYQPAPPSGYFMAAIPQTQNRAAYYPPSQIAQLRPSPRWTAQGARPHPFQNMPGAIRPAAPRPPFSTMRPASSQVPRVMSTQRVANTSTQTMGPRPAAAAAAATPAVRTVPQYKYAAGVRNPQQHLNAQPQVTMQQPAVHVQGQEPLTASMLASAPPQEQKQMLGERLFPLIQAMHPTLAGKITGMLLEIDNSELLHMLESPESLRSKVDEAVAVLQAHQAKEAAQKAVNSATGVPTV

## O=C(CSc1nncc2ccccc12)N1CCOCC1
[1]
  IC50: > 66 µM (inactive)
[2]
  IC50: > 66 µM (inactive)

## COc1ccc(NC(=O)CCCC2CCCCC2)cc1S(=O)(=O)N1CCCCC1
[3]
  EC50: > 53 µM (inactive)
[4]
  IC50: > 47.1 µM (inactive)

## C[C@@H]1CN([C@H](C)CO)C(=O)Cc2cc(NC(=O)C3CCCCC3)ccc2O[C@H]1CN(C)Cc1ccc(Oc2ccccc2)cc1
[5]
  AC50: 2.45 µM (active)

## CC(SC1=NCCS1)C(=O)Nc1nnc(-c2ccc(Br)cc2)s1 (stereo not given)
[3]
  EC50: > 53 µM (inactive)
[4]
  IC50: > 47.1 µM (inactive)

## C[C@@H]1CN([C@H](C)CO)C(=O)c2cccc(NC(=O)Nc3ccc(C(F)(F)F)cc3)c2O[C@H]1CN(C)C(=O)Nc1ccc2c(c1)OCO2
[5]
  AC50: 6.12 µM (active)

## Cc1csc2ncnc(N3CCN(C(=O)Nc4ccc(OC(F)(F)F)cc4)CC3)c12
[6]
  IC50: 6.79 µM (not active)

## CN(C(=O)COC(=O)c1cnc(Cl)c(Cl)c1)C1CCS(=O)(=O)C1 (stereo not given)
[6]
  IC50: 3.14 µM (not active)

## CCOC(=O)NC(C(F)(F)F)(C(F)(F)F)P(=O)(c1ccccc1)c1ccccc1
[6]
  IC50: > 50 µM (not active)

## CC1=C(/C=C/C(=O)O)C(C)(C)CCC1
[7]
  EC50: > 260 µM (inactive)

## CCCn1c(O)c(N=NC(=O)c2ccco2)c2ccccc21
[8]
  CC50: > 40 µM (active)
[9]
  EC50: > 195 µM (not active)
[10]
  CC50: > 40 µM (active)

## CCOC(=O)C1C(C)=CC(=O)CC1c1ccco1 (stereo not given)
[3]
  EC50: > 53 µM (inactive)
[4]
  IC50: > 47.1 µM (inactive)

## CCCN1C(=O)c2ccccc2NC1c1ccc(Cl)c(Cl)c1 (stereo not given)
[11]
  EC50: > 120 µM (not active)
[7]
  EC50: 59.6 µM (active)
[12]
  EC50: 38.8 µM (active)
[13]
  EC50: 16 µM (active)

## C/C(=N\Nc1cc(C)nc(-c2ccccc2)n1)c1cccc([N+](=O)[O-])c1
[3]
  EC50: > 53 µM (inactive)
[4]
  IC50: > 47.1 µM (inactive)

## COc1cccc(NC(=O)CC2SC(Nc3ccccc3)=NC2=O)c1 (stereo not given)
[6]
  IC50: > 50 µM (not active)

## CC(=O)Nc1ccccc1/C=C/c1ccc2c(C)cc(C)c(O)c2n1
[14]
  EC50: 31.3 µM (active)
[6]
  IC50: 10.9 µM (not active)
[15]
  EC50: > 38 µM (not active)

## COc1cc(Br)cc(CNc2ccc(F)c([N+](=O)[O-])c2)c1O
[6]
  IC50: 2.79 µM (active)

## CN(CC1CCOCC1)C(=O)CC1C(=O)NCCN1Cc1ccc(Cl)c(F)c1 (stereo not given)
[3]
  EC50: > 53 µM (inactive)
[4]
  IC50: > 47.1 µM (inactive)

## COc1ccc(CCN2C(=O)C3C(C2=O)C2C=CC3C23CC3)cc1OC (stereo not given)
[7]
  EC50: > 260 µM (inactive)

## CN(C)c1ccc(C(=O)c2ccccc2C(=O)O)cc1[N+](=O)[O-]
[16]
  EC50: > 150 µM (not active)
[17]
  EC50: > 150 µM (not active)
[18]
  EC50: > 150 µM (not active)
[19]
  EC50: 102 µM (active)

## COc1ccc(C(=O)NC(=S)Nc2cccc(NC(=O)c3ccco3)c2)cc1[N+](=O)[O-]
[1]
  IC50: > 66 µM (inactive)
[2]
  IC50: > 66 µM (inactive)

## Cc1n[nH]c2c(=S)[nH]c(=O)[nH]c12
[1]
  IC50: > 66 µM (inactive)
[2]
  IC50: > 66 µM (inactive)

## CC(C)(C)C(=O)Nc1c2c(nn1-c1ccc(F)cc1)CSC2
[1]
  IC50: > 66 µM (inactive)
[2]
  IC50: > 66 µM (inactive)

## COc1ccc(S(=O)(=O)N(C)C[C@@H]2OCCCC[C@@H](C)Oc3ccc(NC(=O)Nc4ccc(C(F)(F)F)cc4)cc3C(=O)N([C@H](C)CO)C[C@@H]2C)cc1
[5]
  AC50: 5.92 µM (active)

## C[C@@H]1CCCCO[C@@H](CN(C)C(=O)Nc2ccc(C(F)(F)F)cc2)[C@@H](C)CN([C@H](C)CO)C(=O)c2cc(NS(=O)(=O)c3ccc(F)cc3)ccc2O1
[5]
  AC50: 1.85 µM (active)

## C[C@H](CO)N1C[C@H](C)[C@H](CN(C)Cc2ccc(Oc3ccccc3)cc2)Oc2c(NC(=O)c3cnccn3)cccc2C1=O
[5]
  AC50: 5.22 µM (active)

## C[C@H]1CN([C@@H](C)CO)C(=O)Cc2cc(NC(=O)CCCCCC(=O)Nc3ccccc3N)ccc2O[C@@H]1CN(C)Cc1ccc(C(F)(F)F)cc1
[5]
  AC50: 5.01 µM (active)

## Cc1sc2nc(C)n(/N=C/c3ccc(O)cc3O)c(=O)c2c1C
[7]
  EC50: > 260 µM (inactive)

## O=C(Nc1cccc(Cl)c1)N1CCC(CO)(CCOc2ccccc2)CC1
[7]
  EC50: 45 µM (active)

## C[C@H](CO)N1C[C@H](C)[C@H](CN(C)Cc2ccc(C(F)(F)F)cc2)Oc2ccc(NC(=O)Nc3cccc4ccccc34)cc2C1=O
[5]
  AC50: 2.81 µM (active)

## COc1ccc(C2=NN=C(c3ccco3)Nc3ccc(F)cc32)cc1
[3]
  EC50: > 53 µM (inactive)
[4]
  IC50: > 47.1 µM (inactive)

## Cc1ccsc1C(=O)N/N=C/c1ccc2c(c1)OCO2
[16]
  EC50: > 150 µM (inconclusive)
[17]
  EC50: 11.6 µM (inconclusive)
[18]
  EC50: 15.4 µM (active)
[19]
  EC50: 9.95 µM (inconclusive)

## COC(CNc1ncnc2c1cnn2C)OC
[3]
  EC50: > 53 µM (inactive)
[4]
  IC50: > 47.1 µM (inactive)

## CCOC(=O)CSc1nc2c(c(=O)[nH]c(=O)n2C)n1C/C=C(/C)Cl
[1]
  IC50: > 66 µM (inactive)
[2]
  IC50: > 66 µM (inactive)

## CCOC(=O)c1c(N)sc2c1CCS(=O)(=O)C2
[1]
  IC50: > 66 µM (inactive)
[2]
  IC50: > 66 µM (inactive)

## CCN(c1ccccc1)S(=O)(=O)c1ccc(NC(=O)c2ccco2)cc1
[3]
  EC50: > 53 µM (inactive)
[4]
  IC50: > 47.1 µM (inactive)

## O=C1CC(SC(=S)C2CCCC2=O)C(=O)N1 (stereo not given)
[20]
  IC50: 45.4 µM (active)
[1]
  IC50: > 66 µM (inactive)
[2]
  IC50: > 66 µM (inactive)
